For assay [1], the target named is human GLP-1 receptor (hGLP-1R) (Homo sapiens, UniProt P43220). The assay can be described thus: cAMP production (HTRF) in CHO cells expressing hGLP-1R. The format is cell-based. The arrangement: expressed in transfected cells. The conditions noted are these: for EC50: cAMP in CHO hGLP-1R cells, geometric mean, read-out: hGLP-1R EC50; for % Relative Potency Ratio: % GLP-1R activity relative to GLP-1 / % GlucR activity relative to glucagon. An outline of the steps: (§1)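 Potency values represent EC50 from 4-parameter logistic curves of HTRF % Delta F signal. Receptor-expressing CHO cells (hGCGR 2×10^5 cells/mL, hGLP-1R 1×10^5 cells/mL) were exposed for 30 min at room temperature before two-step cAMP detection.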
Sequence of human GLP-1 receptor (hGLP-1R) (P43220 24-463): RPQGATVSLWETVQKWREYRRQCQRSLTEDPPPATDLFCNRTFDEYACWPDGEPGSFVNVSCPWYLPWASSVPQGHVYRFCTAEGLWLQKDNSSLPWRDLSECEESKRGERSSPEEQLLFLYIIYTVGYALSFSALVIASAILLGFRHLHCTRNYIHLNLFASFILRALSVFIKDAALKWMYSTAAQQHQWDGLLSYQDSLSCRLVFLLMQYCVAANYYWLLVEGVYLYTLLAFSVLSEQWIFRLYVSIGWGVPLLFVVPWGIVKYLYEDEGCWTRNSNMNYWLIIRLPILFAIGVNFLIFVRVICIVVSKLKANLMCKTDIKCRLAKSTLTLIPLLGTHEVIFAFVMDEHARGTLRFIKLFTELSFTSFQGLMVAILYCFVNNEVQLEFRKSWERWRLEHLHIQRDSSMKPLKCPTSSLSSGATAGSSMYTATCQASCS
A general note: Changes in cAMP serve as a functional read-out for many G protein-coupled receptors.

For assay [2], the target named is human glucagon receptor (hGCGR) (Homo sapiens, UniProt P47871). The assay can be described thus: cAMP production (HTRF) in CHO cells expressing hGCGR. The conditions noted are these: cAMP in CHO hGCGR cells, geometric mean, read-out: hGluc-R EC50. The format is cell-based. Details: expressed in transfected cells. An outline of the steps: as §1
Sequence of human glucagon receptor (hGCGR) (P47871 26-477): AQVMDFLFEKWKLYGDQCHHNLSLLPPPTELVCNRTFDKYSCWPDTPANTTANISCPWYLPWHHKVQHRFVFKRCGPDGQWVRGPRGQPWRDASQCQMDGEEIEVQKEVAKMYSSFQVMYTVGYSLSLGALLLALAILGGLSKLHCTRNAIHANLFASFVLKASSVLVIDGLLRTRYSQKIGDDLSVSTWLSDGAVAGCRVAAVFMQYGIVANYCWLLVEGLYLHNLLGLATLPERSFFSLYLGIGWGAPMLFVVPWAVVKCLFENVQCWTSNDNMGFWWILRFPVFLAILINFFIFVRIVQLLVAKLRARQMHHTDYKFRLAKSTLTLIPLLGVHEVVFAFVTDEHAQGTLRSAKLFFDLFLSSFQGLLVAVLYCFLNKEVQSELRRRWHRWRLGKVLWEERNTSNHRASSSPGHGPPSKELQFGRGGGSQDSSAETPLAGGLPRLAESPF
Setting [3] is: Table 6, peptides modified at position 17.
Setting [4] is: Table 7, peptides modified at position 20.

Like-named read-outs stand apart in the source and are kept apart here. Starred links: 1 amine or outer side, 2 acyl side, 3 side chain; linkers in the order of their positions; H or OH if unused. Non-standard residues stand in square brackets, D forms with d. Residues, ends and D or L forms follow the SMILES beside them. Groups on a side chain read outwards from the residue. *: point of attachment. C18 diacid = O=C(O)CCCCCCCCCCCCCCCCC(=O)*; γGlu = O=C(O)[C@H](CCC(=O)[*:2])N[*:1]; Stearoyl = CCCCCCCCCCCCCCCCCC(=O)*; Palmitoyl = CCCCCCCCCCCCCCCC(=O)*; αMeF = C[C@](N)(Cc1ccccc1)C(=O)O; PEG2 = NCCOCCOCCC(=O)O; AEEA = NCCOCCOCC(=O)O; Aib = CC(C)(N)C(=O)O

From patent US20250353891A1 (MEDIMMUNE LIMITED, priority 2022, published 2025) come the findings set out here.

With `CC[C@H](C)[C@H](NC(=O)[C@H](CO)NC(=O)[C@H](CCC(N)=O)NC(=O)[C@@H](NC(=O)[C@](C)(Cc1ccccc1)NC(=O)[C@H](CC(=O)O)NC(=O)[C@H](CCCNC(=N)N)NC(=O)[C@H](C)NC(=O)[C@H](C)NC(=O)[C@H](CCCCNC(=O)COCCOCCNC(=O)COCCOCCNC(=O)CC[C@H](NC(=O)CCCCCCCCCCCCCCCCC(=O)O)C(=O)O)NC(=O)[C@H](CO)NC(=O)[C@H](CC(=O)O)NC(=O)[C@H](CC(C)C)NC(=O)[C@](C)(Cc1ccccc1)NC(=O)[C@H](CCCCN)NC(=O)[C@H](CO)NC(=O)[C@@H](NC(=O)[C@H](CC(=O)O)NC(=O)[C@H](CO)NC(=O)[C@@H](NC(=O)[C@](C)(Cc1ccccc1)NC(=O)[C@H](CO)NC(=O)CNC(=O)[C@H](Cc1c[nH]cn1)NC(=O)C(C)(C)NC(=O)[C@@H](N)Cc1c[nH]cn1)[C@@H](C)O)C(C)C)C(C)C)C(=O)N[C@@H](C)C(=O)N[C@@H](CC(N)=O)C(=O)N[C@H](C(N)=O)[C@@H](C)O` [Peptide 18] (H-H[Aib]HGS[αMeF]TSDVSK[αMeF]LDSK([AEEA-AEEA-γGlu-C18 diacid])AARD[αMeF]VQSIANT-NH2; N-terminus assumed), the concentration giving a half-maximal response (EC50) in assay [1] (setting [3]) turned out to be 0.0205 nM; in assay [2] (setting [3]), 0.122 nM. Besides, the “% Relative Potency Ratio” value in assay [1] (Table 6) is on record as 11.7.
As for `CC(C)C[C@H](NC(=O)[C@H](Cc1c[nH]c2ccccc12)NC(=O)[C@H](CCC(N)=O)NC(=O)[C@@H](NC(=O)[C@H](Cc1ccccc1)NC(=O)[C@H](CC(=O)O)NC(=O)[C@H](CCCCNC(=O)CC[C@H](NC(=O)CCCCCCCCCCCCCCCCC(=O)O)C(=O)O)NC(=O)[C@H](C)NC(=O)[C@H](CCCNC(=N)N)NC(=O)[C@H](CCCNC(=N)N)NC(=O)C(C)(C)NC(=O)[C@H](CC(=O)O)NC(=O)[C@H](CC(C)C)NC(=O)[C@](C)(Cc1ccccc1)NC(=O)[C@H](CCCCN)NC(=O)[C@H](CO)NC(=O)[C@H](Cc1ccc(O)cc1)NC(=O)[C@H](CC(=O)O)NC(=O)[C@H](CO)NC(=O)[C@@H](NC(=O)[C@H](Cc1ccccc1)NC(=O)[C@@H](NC(=O)CNC(=O)[C@H](CCC(N)=O)NC(=O)C(C)(C)NC(=O)[C@@H](N)Cc1c[nH]cn1)[C@@H](C)O)[C@@H](C)O)C(C)C)C(=O)N[C@@H](CC(C)C)C(=O)NC(C)(C)C(=O)N[C@H](C(=O)O)[C@@H](C)O` [Peptide 338], the EC50 in assay [1] (setting [4]) came out at 0.308 nM; in assay [2] (setting [4]), 0.0257 nM. Besides, in assay [1] (Table 7), the “% Relative Potency Ratio” value is 0.2.
As to `CC(C)C[C@H](NC(=O)[C@H](Cc1c[nH]c2ccccc12)NC(=O)[C@H](CCCNC(=N)N)NC(=O)[C@@H](NC(=O)[C@H](Cc1ccccc1)NC(=O)[C@H](CC(=O)O)NC(=O)[C@H](CCCNC(=N)N)NC(=O)[C@H](C)NC(=O)[C@H](CCCNC(=N)N)NC(=O)[C@H](CCCCNC(=O)COCCOCCNC(=O)COCCOCCNC(=O)CC[C@H](NC(=O)CCCCCCCCCCCCCCCCC(=O)O)C(=O)O)NC(=O)[C@H](CCCCN)NC(=O)[C@H](CC(=O)O)NC(=O)[C@H](CC(C)C)NC(=O)[C@](C)(Cc1ccccc1)NC(=O)[C@H](CCCCN)NC(=O)[C@H](CO)NC(=O)[C@@H](NC(=O)[C@H](CC(=O)O)NC(=O)[C@H](CO)NC(=O)[C@@H](NC(=O)[C@H](Cc1ccccc1)NC(=O)[C@@H](NC(=O)CNC(=O)[C@H](CCC(N)=O)NC(=O)C(C)(C)NC(=O)[C@@H](N)Cc1c[nH]cn1)[C@@H](C)O)[C@@H](C)O)C(C)C)C(C)C)C(=O)N[C@@H](CC(C)C)C(=O)NC(C)(C)C(=O)N[C@@H](CCC(=O)O)C(N)=O` [Peptide 443] (H-H[Aib]QGTFTSDVSK[αMeF]LDKK([AEEA-AEEA-γGlu-C18 diacid])RARDFVRWLL[Aib]E-NH2; N-terminus assumed), the values for the EC50 in assay [1] (setting [3]) and in assay [2] (setting [3]) were 0.0206 nM and 0.0224 nM, respectively. Further, the “% Relative Potency Ratio” value in assay [1] (Table 6) was 2.2.
With `CC(C)C[C@H](NC(=O)[C@H](CC(C)C)NC(=O)[C@H](Cc1c[nH]c2ccccc12)NC(=O)[C@H](CCC(N)=O)NC(=O)[C@@H](NC(=O)[C@H](Cc1ccccc1)NC(=O)[C@H](CC(=O)O)NC(=O)[C@H](CCCNC(=N)N)NC(=O)[C@H](C)NC(=O)[C@H](CCCNC(=N)N)NC(=O)[C@H](CCCCNC(=O)COCCOCCNC(=O)COCCOCCNC(=O)CC[C@H](NC(=O)CCCCCCCCCCCCCCCCC(=O)O)C(=O)O)NC(=O)[C@@H](NC(=O)[C@H](CC(=O)O)NC(=O)[C@H](CC(C)C)NC(=O)[C@](C)(Cc1ccccc1)NC(=O)[C@H](CCCCN)NC(=O)[C@H](CO)NC(=O)[C@@H](NC(=O)[C@H](CC(=O)O)NC(=O)[C@H](CO)NC(=O)[C@@H](NC(=O)[C@H](Cc1ccccc1)NC(=O)[C@@H](NC(=O)CNC(=O)[C@H](CCC(N)=O)NC(=O)C(C)(C)NC(=O)[C@@H](N)Cc1c[nH]cn1)[C@@H](C)O)[C@@H](C)O)C(C)C)[C@@H](C)O)C(C)C)C(=O)N[C@@H](C)C(=O)NC(C)(C)C(=O)NCC(N)=O` [Peptide 474] (H-H[Aib]QGTFTSDVSK[αMeF]LDTK([AEEA-AEEA-γGlu-C18 diacid])RARDFVQWLLA[Aib]G-NH2; N-terminus assumed), the results for the half-maximal effective concentration (EC50) in assay [1] (setting [3]) and in assay [2] (setting [3]) were 0.00804 nM and 0.0569 nM, respectively. In assay [1] (Table 6), the “% Relative Potency Ratio” value stood at 14.0.
Consider `CCCCCCCCCCCCCCCCCC(=O)N[C@@H](CCC(=O)N[C@@H](CCC(=O)NCCOCCOCCC(=O)NCCOCCOCCC(=O)NCCCC[C@H](NC(=O)[C@H](CO)NC(=O)[C@H](CC(=O)O)NC(=O)[C@H](CC(C)C)NC(=O)C(C)(C)NC(=O)[C@H](CCCCN)NC(=O)[C@H](CO)NC(=O)[C@@H](NC(=O)[C@H](CC(=O)O)NC(=O)[C@H](CO)NC(=O)[C@@H](NC(=O)[C@](C)(Cc1ccccc1)NC(=O)[C@H](CO)NC(=O)CNC(=O)[C@H](CCC(N)=O)NC(=O)[C@@H](NC(=O)[C@@H](N)Cc1c[nH]cn1)[C@@H](C)O)[C@@H](C)O)C(C)C)C(=O)N[C@@H](C)C(=O)N[C@@H](C)C(=O)N[C@@H](CCC(N)=O)C(=O)N[C@@H](CC(=O)O)C(=O)N[C@@](C)(Cc1ccccc1)C(=O)N[C@H](C(=O)N[C@@H](CCC(N)=O)C(=O)NC(C)(C)C(=O)N[C@H](C(=O)N[C@@H](C)C(=O)N[C@@H](CC(N)=O)C(N)=O)[C@@H](C)CC)C(C)C)C(=O)O)C(=O)O` [Peptide 104] (H-HTQGS[αMeF]TSDVSK[Aib]LDSK([PEG2-PEG2-γGlu-γGlu-Stearoyl])AAQD[αMeF]VQ[Aib]IAN-NH2; N-terminus assumed), for which the EC50 in assay [1] (setting [3]) came out at 0.247 nM; in assay [2] (setting [3]), 0.0456 nM. For the same compound, in assay [1] (Table 6), the “% Relative Potency Ratio” value turned out to be 0.4.
For `CCCCCCCCCCCCCCCC(=O)N[C@@H](CCC(=O)N[C@@H](CCC(=O)NCCOCCOCCC(=O)NCCOCCOCCC(=O)NCCCC[C@H](NC(=O)[C@H](CO)NC(=O)[C@H](CC(=O)O)NC(=O)[C@H](CC(C)C)NC(=O)[C@@H](NC(=O)[C@H](CCCCN)NC(=O)[C@H](CO)NC(=O)[C@@H](NC(=O)[C@H](CC(=O)O)NC(=O)[C@H](CO)NC(=O)[C@@H](NC(=O)[C@](C)(Cc1ccccc1)NC(=O)[C@H](CO)NC(=O)CNC(=O)[C@H](CCC(N)=O)NC(=O)[C@H](CO)NC(=O)[C@@H](N)Cc1c[nH]cn1)[C@@H](C)O)C(C)C)[C@@H](C)CC)C(=O)N[C@@H](C)C(=O)N[C@@H](C)C(=O)N[C@@H](CCC(N)=O)C(=O)N[C@@H](CC(=O)O)C(=O)N[C@@](C)(Cc1ccccc1)C(=O)N[C@H](C(=O)N[C@@H](CCC(N)=O)C(=O)NC(C)(C)C(=O)N[C@H](C(=O)N[C@H](C(=O)N[C@@H](CC(N)=O)C(=O)N[C@H](C(N)=O)[C@@H](C)O)[C@@H](C)CC)[C@@H](C)CC)C(C)C)C(=O)O)C(=O)O` [Peptide 118] (H-HSQGS[αMeF]TSDVSKILDSK([PEG2-PEG2-γGlu-γGlu-Palmitoyl])AAQD[αMeF]VQ[Aib]IINT-NH2) the same measures were 0.00107 nM, 0.0012 nM and 2.2.
With `CC[C@H](C)[C@H](NC(=O)[C@H](CC(C)C)NC(=O)[C@H](Cc1c[nH]c2ccccc12)NC(=O)[C@H](CCC(N)=O)NC(=O)[C@@H](NC(=O)[C@H](Cc1ccccc1)NC(=O)[C@H](CC(=O)O)NC(=O)[C@H](CCCCNC(=O)CC[C@H](NC(=O)CCCCCCCCCCCCCCCCC(=O)O)C(=O)O)NC(=O)[C@H](C)NC(=O)[C@H](CCCNC(=N)N)NC(=O)[C@H](CCCNC(=N)N)NC(=O)[C@H](CO)NC(=O)[C@H](CC(=O)O)NC(=O)[C@H](CC(C)C)NC(=O)[C@](C)(Cc1ccccc1)NC(=O)[C@H](CCCCN)NC(=O)[C@H](CO)NC(=O)[C@H](Cc1ccc(O)cc1)NC(=O)[C@H](CC(=O)O)NC(=O)[C@H](CO)NC(=O)[C@@H](NC(=O)[C@H](Cc1ccccc1)NC(=O)[C@@H](NC(=O)CNC(=O)[C@H](CCC(N)=O)NC(=O)C(C)(C)NC(=O)[C@@H](N)Cc1c[nH]cn1)[C@@H](C)O)[C@@H](C)O)C(C)C)C(=O)N[C@@H](CO)C(=O)N[C@@H](CCC(=O)O)C(=O)O` [Peptide 336] (H-H[Aib]QGTFTSDYSK[αMeF]LDSRRAK([γGlu-C18 diacid])DFVQWLISE-OH; N-terminus assumed), the results for the EC50 in assay [1] (setting [4]) and in assay [2] (setting [4]) were 0.632 nM and 0.305 nM, respectively. Moreover, the “% Relative Potency Ratio” value in assay [1] (Table 7) is 1.0.

By EC50 is commonly meant the concentration that produces a half-maximal response.
